Among the data in PubChem BioAssay (NCI) are GI50 and TGI values, retold here.

Holding throughout (assay): NCI anticancer screen, dose series, 48 h
The subject of assay [1] is A549 NSCLC.
Assay [2] relates to KM12 colon.
The test system of assay [3] is SNB-19 CNS.
Assay [4] relates to OVCAR-4 ovarian.
Assay [5] concerns UO-31 renal.
Assay [6] relates to UACC-257 melanoma.
Assay [7] concerns OVCAR-5 ovarian.
The test system of assay [8] is SK-MEL-5 melanoma.
Assay [9] deals with HOP-92 NSCLC.
The subject of assay [10] is HCT-116 colon.

Molecules are shown by their SMILES.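 Five concentrations, 48 hours, 96-well plates. Here, GI50 denotes the concentration required for 50% inhibition of growth. At the TGI there is no net growth.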

For the molecule `CC(C)=CC1=C2C3=C(C(=O)C4(O)Oc5c(C)c6c7c(c5OC24C)[C@@H](C)CC[C@@H]7[C@@H](C)C[C@H]6C=C(C)C)C(C)CCC3C(C)C1` (stereo partly drawn), the GI50 in [1], in assay [2], in assay [3], in [4], in [5] and in assay [6] was over 100 µM each time. Besides, the GI50 in assay [7] and in [8] was over 100 µM in each case. Further, the TGI in assay [1], in assay [2], in [3], in assay [4], in assay [5] and in assay [6] was over 100 µM throughout. For the same molecule, the TGI in [7] and in [8] was over 100 µM each time.

For `Clc1ccc(C(n2cc(Br)cn2)n2cc(Br)cn2)cc1`, the TGI in [1] was determined as 32.6 µM; in assay [2] it was 31.6 µM; in assay [4] it was 26.4 µM; in assay [9] it was 30.6 µM; in assay [5], 20 µM; in assay [6], 29.3 µM. For the same molecule, the TGI in assay [7] was 29.9 µM; in assay [8], 27.2 µM.

`COC(C)(C)C/C=C/C(C)=C/C=C/C(C)=C\C=C\C(C)=C\C=C\C=C(C)\C=C\C=C(C)\C=C\C=C(C)\C=C\CC(C)(C)OC`: the GI50 in assay [1], in [3], in assay [4], in [9], in assay [5] and in assay [6] was over 150 mg/L throughout. Also, the GI50 in assay [10], in assay [7] and in assay [8] was over 150 mg/L in each case. Besides, the TGI in [1], in [3], in assay [4], in [9], in assay [5] and in assay [6] was over 150 mg/L in each case. Moreover, the TGI in assay [10], in assay [7] and in assay [8] was over 150 mg/L throughout.

For `C=C1C(=O)O[C@H]2[C@H]1CC/C(Cn1cc(-c3ccccc3C(F)(F)F)nn1)=C\CC[C@@]1(C)O[C@@H]21`, the GI50 in assay [1] was 7.23 µM; in [2], 5.88 µM; in assay [3], 10.8 µM; in assay [4] it was 2.77 µM; in assay [9] it was 1.48 µM; in assay [5], 1.23 µM. The figures for the GI50 in [10], in assay [7] and in assay [8] were 1.26 µM, 2.46 µM and 1.72 µM, respectively. In addition, the TGI in [1] was 21.8 µM; in assay [2], 19.2 µM; in assay [3], 25.8 µM; in assay [4], 9.4 µM; in assay [9], 3.47 µM; in assay [5] it was 2.61 µM. Moreover, the TGI is 2.74 µM in [10], 8.95 µM in [7] and 3.44 µM in assay [8].

Turning to `CN(C)CC/[N+]([O-])=C(/c1ccccc1)C12CC3CC(CC(C3)C1)C2`, the TGI in assay [1] is 32.9 µM; in [2], 33.3 µM; in [3] it was 37.5 µM; in assay [9], 28.8 µM; in [5], 24.6 µM; in [6], 29.9 µM. The TGI in assay [10], in [7] and in assay [8] was 32 µM in each case.

For `Oc1ccc2oc3ncc(Br)c(-c4ccccc4)c3c2c1`, the GI50 in [1], in [2], in assay [9], in [5], in assay [6] and in assay [10] was over 100 µM in each case. Moreover, the GI50 in [7] and in assay [8] was over 100 µM each time. In addition, the TGI in [1], in [2], in assay [9], in [5], in assay [6] and in assay [10] was over 100 µM in each case. For the same molecule, the TGI in [7] and in assay [8] was over 100 µM throughout.

As for `N#C/C(=C\c1ccc(Br)cc1)n1nnc2ccc(F)cc21`, the GI50 in assay [1] is 2.01 µM; in [2] it was 1.3 µM; in [3], 1.66 µM; in [4], 0.939 µM; in assay [5] it was 1.02 µM; in assay [6], 1.42 µM. Further, the figures for the GI50 in assay [10], in [7] and in [8] were 0.741 µM, 1.87 µM and 1.57 µM, respectively. Further, the TGI was 72.4 µM in assay [1]; 4.04 µM in [2]; 3.16 µM in assay [3]; 5.31 µM in assay [4]; 2.2 µM in assay [5]; 4.25 µM in assay [6]. For the same molecule, the values for the TGI in [10], in assay [7] and in assay [8] were 2.35 µM, 3.99 µM and 2.94 µM, respectively.

Take `Cc1cc2c(C)nn(Cc3ccc(Cl)cc3)c2c(C#N)c1C`: the TGI was over 100 µM in assay [1]; over 100 µM in assay [3]; 95.1 µM in [9]; over 100 µM in assay [5]; over 100 µM in assay [6]; over 100 µM in assay [10]. In addition, in assay [7], the TGI was over 100 µM.

Turning to `CN(C)CCCNC(=O)c1cc(NC(=O)c2cc(NC(=O)CCNS(=O)(=O)c3ccc4c(c3)C(=O)c3ccccc3C4=O)cn2C)cn1C`, the GI50 in assay [1], in assay [2], in assay [3], in [9], in assay [5] and in assay [6] was over 100 µM throughout. Also, the GI50 in assay [7] and in [8] was over 100 µM in each case. In addition, the TGI in assay [1], in assay [2], in [3], in assay [9], in [5] and in assay [6] was over 100 µM each time. For the same molecule, the TGI in assay [7] and in assay [8] was over 100 µM throughout.

As for `O=C(O)CCc1nn2c(nc1=O)sc1ccc3ccccc3c12`, the TGI in assay [1], in assay [3], in assay [4], in assay [9], in [5] and in [6] was over 100 µM each time. For the same molecule, the TGI in [10] and in assay [8] was over 100 µM in each case.

On to `COc1cccc(/C=N/C(/N=C/c2cccc(OC)c2O)c2cccc(OC)c2O)c1O`, for which the TGI in [1] is 78.8 µM; in [2], 76.7 µM; in [3], over 100 µM; in assay [9], over 100 µM; in assay [5] it was 58.6 µM; in [6], 58.9 µM. Besides, the TGI in assay [10] is over 100 µM; in assay [7], 73.8 µM; in assay [8] it was 35.1 µM.
